Assay results from patent US11203577B2, “Sulfonyl-structure-containing triazinone derivatives, their preparation methods and their uses in insect killing and/or bacterium killing” (Nankai University, priority 2017, dated 2021).

Legend:
[1] = test system: Capsicum phytophthora blight; test: In vitro fungicidal activity, PDA colony diameter; format: cell-based; conditions: 96 h
Method in brief: (§1)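 Percent growth inhibition derived from colony diameter versus compound-free PDA control after 4 days' culture. Plates contained compound at 50 mg/kg; inoculum was a plug taken from the periphery of a 7-day PDA culture.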

[2] = test system: Apple ring rot; test: In vitro fungicidal activity, PDA colony diameter; format: cell-based; conditions: inhibition of colony diameter
Method in brief: as §1

[3] = test system: Cucumber fusarium wilt; test: In vitro fungicidal activity, PDA colony diameter; format: cell-based; conditions: 96 h, 50 mg/kg, inhibition of colony diameter, read-out: Fungicidal activity (%) Cucumber fusarium wilt
[4] = test system: Sclerotinia rot of colza; test: In vitro fungicidal activity, PDA colony diameter; format: cell-based; conditions: 96 h, 50 mg/kg, inhibition of colony diameter, read-out: Fungicidal activity (%) Sclerotinia rot of colza
[5] = test system: Cercospora brown spot of peanut; test: In vitro fungicidal activity, PDA colony diameter; format: cell-based; conditions: 96 h, 50 mg/kg, inhibition of colony diameter, read-out: Fungicidal activity (%) Cercospora brown spot of peanut
[6] = test system: Rice sheath blight; test: In vitro fungicidal activity, PDA colony diameter; format: cell-based; conditions: 50 mg/kg, inhibition of colony diameter; read-out: Fungicidal activity (%) Rice sheath blight
[7] = test system: Wheat head blight; test: whole plant or invertebrate; format: cell-based; conditions: Triticum aestivum, read-out: Fungicidal activity (%) Wheat head blight
[8] = test system: Rice bakanae disease; test: In vitro fungicidal activity, PDA colony diameter; format: cell-based; conditions: 50 mg/kg, inhibition of colony diameter; read-out: Fungicidal activity (%) Rice bakanae disease
[9] = test system: Maize borers; test: Test of insecticidal activity against maize borers (leaf immersion); conditions: read-out: Mortalities (%) Maize borers
[10] = test system: mosquito larvae (Culer pipiens pallens); test: Test of insecticidal activity against mosquito larvae (checked after 24 h); conditions: for insecticidal activity against mosquito larvae: in vivo
[11] = test system: bean aphides (Aphis laburni Kaltenbach); test: Test of insecticidal activity against aphides (leaf immersion, checked after 96 h); conditions: for insecticidal activity against aphides compared with pymetrozine: 5 mg/kg; for mortality at 5 mg/kg / mortality at 10 mg/kg / mortality at 100 mg/kg / mortality at 600 mg/kg: Aphis, 96 h, read-out: Mortalities (%) against aphides
[12] = test system: Corn southern leaf blight; test: In vitro fungicidal activity, PDA colony diameter; format: cell-based; conditions: 50 mg/kg, inhibition of colony diameter; read-out: Fungicidal activity (%) Corn southern leaf blight
[13] = test system: Tomato early blight; test: In vitro fungicidal activity, PDA colony diameter; format: cell-based, Alternaria solani; conditions: 50 mg/kg, inhibition of colony diameter; read-out: Fungicidal activity (%) Tomato early blight
[14] = test system: Cotton bollworms; test: Test of insecticidal activity against cotton bollworms (pesticide mixed into feedstuff); conditions: read-out: Mortalities (%) Cotton bollworms
Procedure: Method of testing against cotton bollworms: the pesticide is mixed into the feedstuff, i.e., 3 mL prepared solution is added into about 27 g freshly prepared feedstuff; thus, required concentration is obtained by diluting by 10 times.

[15] = test system: Wheat sheath blight; test: In vitro fungicidal activity, PDA colony diameter; format: cell-based; conditions: 50 mg/kg, inhibition of colony diameter; read-out: Fungicidal activity (%) Wheat sheath blight
[16] = test system: Armyworms; test: Test of insecticidal activity against armyworms (leaf immersion); conditions: 3-4 days
[17] = test system: Potato late blight; test: microbe, parasite or virus in culture; format: cell-based; conditions: Phytophthora infestans, 96 h, read-out: Fungicidal activity (%) Potato late blight
[18] = test system: Watermelon anthracnose; test: In vitro fungicidal activity, PDA colony diameter; format: cell-based; conditions: 50 mg/kg, inhibition of colony diameter; read-out: Fungicidal activity (%) Watermelon anthracnose
[19] = 24 h, read-out: Mortalities (%) against mosquito larvae

CC1=NNC(=O)N(NS(=O)(=O)c2ccc(F)cc2F)C1 [Ia-19, 2,4-difluoro-N-(6-methyl-3-oxo-2,3-dihydro-1,2,4-triazin-4(5H)-yl)-benzenesulfonamide]
inhibition of growth at 50 mg/kg [1]: 5.6%
inhibition at 50 mg/kg [2]: 24.3%
inhibition of growth at 50 mg/kg [3]: 11.8%
inhibition of growth at 50 mg/kg [4]: 15.8%
inhibition of growth at 50 mg/kg [5]: 12%
inhibition at 50 mg/kg [6]: 11.6%
inhibition at 50 mg/kg [7]: 5.4%
inhibition at 50 mg/kg [8]: 17.2%
mortality at 600 mg/kg [9]: 20%
mortality at 1 mg/kg [10, 19]: 60%
mortality at 2 mg/kg [10, 19]: 100%
mortality at 5 mg/kg [10, 19]: 100%
mortality at 10 mg/kg [10, 19]: 100%
insecticidal activity against mosquito larvae [10]: relatively high insecticidal activity
insecticidal activity against aphides compared with pymetrozine [11]: equivalent to the insecticidal activity of pymetrozine
mortality at 5 mg/kg [11]: 25%
mortality at 10 mg/kg [11]: 85%
mortality at 100 mg/kg [11]: 100%
mortality at 600 mg/kg [11]: 100%
inhibition at 50 mg/kg [12]: 18.7%
inhibition at 50 mg/kg [13]: 19.4%
mortality at 600 mg/kg [14]: 20%
inhibition at 50 mg/kg [15]: 0%
Mortalities (%) Armyworms ([16]; 600 mg/kg): 25%
inhibition of growth at 50 mg/kg [17]: 25%
inhibition at 50 mg/kg [18]: 16.4%

CC1=NNC(=O)N(NS(=O)(=O)c2ccc(F)c(F)c2F)C1 [Ia-20, 2,3,4-trifluoro-N-(6-methyl-3-oxo-2,3-dihydro-1,2,4-triazin-4(5H)-yl)-benzenesulfonamide]
inhibition of growth at 50 mg/kg [1]: 0%
inhibition at 50 mg/kg [2]: 4.1%
inhibition of growth at 50 mg/kg [3]: 0%
inhibition of growth at 50 mg/kg [4]: 15.8%
inhibition of growth at 50 mg/kg [5]: 12%
inhibition at 50 mg/kg [6]: 9.3%
inhibition at 50 mg/kg [7]: 5.4%
inhibition at 50 mg/kg [8]: 10.3%
mortality at 600 mg/kg [9]: 50%
mortality at 2 mg/kg [10, 19]: 20%
mortality at 5 mg/kg [10, 19]: 100%
mortality at 10 mg/kg [10, 19]: 100%
mortality at 5 mg/kg [11]: 10%
mortality at 10 mg/kg [11]: 70%
mortality at 100 mg/kg [11]: 100%
mortality at 600 mg/kg [11]: 100%
inhibition at 50 mg/kg [12]: 3.1%
inhibition at 50 mg/kg [13]: 16.4%
mortality at 600 mg/kg [14]: 20%
inhibition at 50 mg/kg [15]: 17.4%
Mortalities (%) Armyworms ([16]; 600 mg/kg): 65%
inhibition of growth at 50 mg/kg [17]: 18.7%
inhibition at 50 mg/kg [18]: 13.1%

CC1=NNC(=O)N(NS(=O)(=O)c2ccc(Cl)cc2)C1 [Ia-21, 4-chloro-N-(6-methyl-3-oxo-2,3-dihydro-1,2,4-triazin-4(5H)-yl)-benzenesulfonamide]
inhibition of growth at 50 mg/kg [1]: 25%
inhibition at 50 mg/kg [2]: 8.1%
inhibition of growth at 50 mg/kg [3]: 5.9%
inhibition of growth at 50 mg/kg [4]: 26.3%
inhibition of growth at 50 mg/kg [5]: 12%
inhibition at 50 mg/kg [6]: 11.6%
inhibition at 50 mg/kg [7]: 16.2%
inhibition at 50 mg/kg [8]: 24.1%
mortality at 600 mg/kg [9]: 60%
mortality at 2 mg/kg [10, 19]: 40%
mortality at 5 mg/kg [10, 19]: 100%
mortality at 10 mg/kg [10, 19]: 100%
insecticidal activity against aphides compared with pymetrozine [11]: equivalent to the insecticidal activity of pymetrozine
mortality at 5 mg/kg [11]: 35%
mortality at 10 mg/kg [11]: 85%
mortality at 100 mg/kg [11]: 100%
mortality at 600 mg/kg [11]: 100%
inhibition at 50 mg/kg [12]: 15.6%
inhibition at 50 mg/kg [13]: 6%
mortality at 600 mg/kg [14]: 50%
inhibition at 50 mg/kg [15]: 14.3%
Mortalities (%) Armyworms ([16]; 600 mg/kg): 75%
inhibition of growth at 50 mg/kg [17]: 18.7%
inhibition at 50 mg/kg [18]: 24.6%

CC1=NNC(=O)N(NS(=O)(=O)c2ccc(Br)cc2)C1 [Ia-22, 4-bromo-N-(6-methyl-3-oxo-2,3-dihydro-1,2,4-triazin-4(5H)-yl)-benzenesulfonamide]
inhibition of growth at 50 mg/kg [1]: 27.8%
inhibition at 50 mg/kg [2]: 37.8%
inhibition of growth at 50 mg/kg [3]: 14.7%
inhibition of growth at 50 mg/kg [4]: 21%
inhibition of growth at 50 mg/kg [5]: 16%
inhibition at 50 mg/kg [6]: 23.2%
inhibition at 50 mg/kg [7]: 16.2%
inhibition at 50 mg/kg [8]: 17.2%
mortality at 200 mg/kg [9]: 65%
mortality at 600 mg/kg [9]: 100%
mortality at 0.5 mg/kg [10, 19]: 40%
mortality at 1 mg/kg [10, 19]: 100%
mortality at 2 mg/kg [10, 19]: 100%
mortality at 5 mg/kg [10, 19]: 100%
mortality at 10 mg/kg [10, 19]: 100%
insecticidal activity against mosquito larvae [10]: relatively high insecticidal activity
insecticidal activity against aphides compared with pymetrozine [11]: equivalent to the insecticidal activity of pymetrozine
mortality at 5 mg/kg [11]: 40%
mortality at 10 mg/kg [11]: 100%
mortality at 100 mg/kg [11]: 100%
mortality at 600 mg/kg [11]: 100%
inhibition at 50 mg/kg [12]: 3.1%
inhibition at 50 mg/kg [13]: 6%
mortality at 200 mg/kg [14]: 80%
mortality at 600 mg/kg [14]: 100%
inhibition at 50 mg/kg [15]: 8.7%
Mortalities (%) Armyworms ([16]; 200 mg/kg): 70%
Mortalities (%) Armyworms ([16]; 600 mg/kg): 100%
inhibition of growth at 50 mg/kg [17]: 25%
inhibition at 50 mg/kg [18]: 56.3%

CC1=NNC(=O)N(NS(=O)(=O)c2ccc(I)cc2)C1 [Ia-23, 4-iodo-N-(6-methyl-3-oxo-2,3-dihydro-1,2,4-triazin-4(5H)-yl)-benzenesulfonamide]
inhibition of growth at 50 mg/kg [1]: 38.9%
inhibition at 50 mg/kg [2]: 25.7%
inhibition of growth at 50 mg/kg [3]: 8.8%
inhibition of growth at 50 mg/kg [4]: 31.6%
inhibition of growth at 50 mg/kg [5]: 28%
inhibition at 50 mg/kg [6]: 29.1%
inhibition at 50 mg/kg [7]: 10.8%
inhibition at 50 mg/kg [8]: 20.7%
mortality at 600 mg/kg [9]: 20%
mortality at 1 mg/kg [10, 19]: 30%
mortality at 2 mg/kg [10, 19]: 100%
mortality at 5 mg/kg [10, 19]: 100%
mortality at 10 mg/kg [10, 19]: 100%
insecticidal activity against mosquito larvae [10]: relatively high insecticidal activity
insecticidal activity against aphides compared with pymetrozine [11]: equivalent to the insecticidal activity of pymetrozine
mortality at 5 mg/kg [11]: 45%
mortality at 10 mg/kg [11]: 100%
mortality at 100 mg/kg [11]: 100%
mortality at 600 mg/kg [11]: 100%
inhibition at 50 mg/kg [12]: 25%
inhibition at 50 mg/kg [13]: 19.4%
mortality at 600 mg/kg [14]: 30%
inhibition at 50 mg/kg [15]: 21.7%
Mortalities (%) Armyworms ([16]; 600 mg/kg): 25%
inhibition of growth at 50 mg/kg [17]: 34.3%
inhibition at 50 mg/kg [18]: 68.4%
